From patent publication US11000033B2, “Ketone or oxime compound, and herbicide” (NISSAN CHEMICAL CORPORATION, priority 2014, dated 2021)

Columns and labels:
Format in all cases: in vivo
rice = assay: Test Example 4: effect on crop by soil treatment (symbol b)
In short: (§1)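 Sterilized diluvial soil, spot sowing, ~1.5 cm soil cover; greenhouse 25–30° C.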

corn = assay: Test Example 4: effect on crop by soil treatment (symbol c)
In short: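 Soil-treatment setup: crop and weed seeds were spot-sown into sterilized diluvial soil, then buried beneath approximately 1.5 cm of it, and the boxes were housed in a 25–30° C. greenhouse.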

Galium spurium = assay: Test Example 5: herbicidal effect by foliage application, plastic box (symbol Q); conditions: 320 g/ha, 3 weeks after application
In short: (§2)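 Greenhouse foliar test: seedlings at 14 days, grown 25° C. to 30° C. in sterilized diluvial soil; compound applied as an aqueous dilution of an emulsion; response read 3 weeks after spraying.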

Veronica persica = assay: Test Example 5: herbicidal effect by foliage application, plastic box (symbol R); conditions: 320 g/ha, 3 weeks after application
In short: as §2

Abutilon theophrasti = assay: Test Example 4: herbicidal effect by soil treatment (symbol M)
In short: (§3)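 Seeds were sown in sterilized diluvial soil, covered with about 1.5 cm of soil, and the soil surface was sprayed with a water-diluted emulsion of the compound at a predetermined rate. Plants grew in a greenhouse at 25° C. to 30° C.; effects were scored visually 3 weeks after application.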

Digitaria ciliaris [1] = assay: Test Example 4: herbicidal effect by soil treatment (symbol F)
In short: as §3

Lolium multiflorum Lam. = assay: Test Example 4: herbicidal effect by soil treatment (symbol K)
In short: as §3

[2] = system: Echinochloa oryzacola Vasing.; assay: Test Example 2: herbicidal activity, application during weed generation in submerged conditions (symbol A); conditions: Table 23; application herbicide amount 320 g/ha; grade 0-5 by criteria of Test Example 1
In short: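 Steps: fill pots with alluvial soil; add water to 4 cm depth; co-sow the three weeds; grow at 25° C. to 30° C. under glass; at 1–2 leaves, dose the floodwater with diluted emulsion; rate damage visually after 3 weeks.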

Digitaria ciliaris [3] = assay: Test Example 5: herbicidal effect by foliage application, plastic box (symbol F); conditions: 320 g/ha, 3 weeks after application
In short: as §2

Setaria viridis = assay: Test Example 5: herbicidal effect by foliage application, plastic box (symbol G); conditions: 320 g/ha, 3 weeks after application
In short: as §2

Apera spica-venti = assay: Test Example 5: herbicidal effect by foliage application, plastic box (symbol L); conditions: 320 g/ha, 3 weeks after application
In short: as §2

[4] = system: Echinochloa crus-galli var. crus-galli; assay: Test Example 4: herbicidal effect by soil treatment (symbol H)
In short: as §3

wheat = assay: Test Example 4: effect on crop by soil treatment (symbol e)
In short: as §1

[5] = system: directly sowed rice plant; assay: Test Example 3: effect on crop by foliage application, Wagner pot (symbol b); conditions: application herbicide amount 320 g/ha
In short: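 Alluvial soil in a 1/10000-are Wagner pot was flooded to a water depth of 0.1–0.5 cm. Echinochloa crus-galli var. crus-galli, Leptochloa chinensis, Cyperus difformis and rice were sown into it and grown in a greenhouse at 25–30 °C.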

Alopecurus myosuroides = assay: Test Example 5: herbicidal effect by foliage application, plastic box (symbol J); conditions: 320 g/ha, 3 weeks after application
In short: as §2

Cyperus difformis = assay: Test Example 3: herbicidal effect by foliage application, Wagner pot (symbol E); conditions: application herbicide amount 320 g/ha
In short: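 Post-emergence, paddy-type test: seedlings 14 d old in shallow-flooded (0.1–0.5 cm) alluvial soil, 25–30 °C greenhouse. Emulsion diluted to target rate, sprayed on leaves. Read-out: visual effect on each species at 3 weeks, per set criteria.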

beet [6] = assay: Test Example 5: effect on crop by foliage application, plastic box (symbol f); conditions: 320 g/ha, 3 weeks after application
In short: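 Box culture: sterile diluvial soil, seeds spot-sown, ~1.5 cm cover, raised under glass at 25–30° C.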

beet [7] = assay: Test Example 4: effect on crop by soil treatment (symbol f)
In short: as §1

[8] = application herbicide amount 320 g/ha

Row | SMILES | Q: Galium spurium, herbicidal effect grade (Galium spurium) | R: Veronica persica, herbicidal effect grade (Veronica persica) | Herbicidal effect grade, A: Echinochloa oryzacola Vasing. [2] | F: Digitaria ciliaris, herbicidal effect grade (Digitaria ciliaris [3]) | G: Setaria viridis, herbicidal effect grade (Setaria viridis) | L: Apera spica-venti, herbicidal effect grade (Apera spica-venti) | J: Alopecurus myosuroides, herbicidal effect grade (Alopecurus myosuroides) | f: beet, effect on crop grade (beet [6]) | b (directly sowed rice plant) effect on crop grade (rice; [8]) | c (corn) effect on crop grade (corn; [8]) | M (Abutilon theophrasti) herbicidal effect grade (Abutilon theophrasti; [8]) | F (Digitaria ciliaris) herbicidal effect grade (Digitaria ciliaris [1]; [8]) | K (Lolium multiflorum Lam.) herbicidal effect grade (Lolium multiflorum Lam.; [8]) | H (Echinochloa crus-galli var. crus-galli) herbicidal effect grade [4, 8] | e (wheat) effect on crop grade (wheat; [8]) | effect on crop b (directly sowed rice plant), grade 0-5 [5] | herbicidal effect on E, grade 0-5 (Cyperus difformis) | f (beet) effect on crop grade (beet [7]; [8]) | also measured
1 | CC#Cc1cc(C)c(C2=C(OC(=O)COc3ccccc3)CC(CC(=NOC)C(C)C)C2=O)c(C)c1 (stereo not drawn) [9-003] | 0 (Herbicidal ratio of 5% or lower (almost no effect)) | 4 (Herbicidal ratio of 70% or higher and lower than 90%) | 5 (Herbicidal ratio of 90% or more (almost completely withered)) | 5 (Herbicidal ratio of 90% or more (almost completely withered)) | 5 (Herbicidal ratio of 90% or more (almost completely withered)) | 5 (Herbicidal ratio of 90% or more (almost completely withered)) | 5 (Herbicidal ratio of 90% or more (almost completely withered)) | 1 (Herbicidal ratio of 5% or higher and lower than 20%) |  |  |  |  |  |  |  |  |  |  | Effect on crop grade, b: directly sowed rice plant (rice; [8]): 5 (Herbicidal ratio of 90% or more (almost completely withered)); Effect on crop grade, c: corn (corn; [8]): 5 (Herbicidal ratio of 90% or more (almost completely withered)); Herbicidal effect grade, M: Abutilon theophrasti (Abutilon theophrasti; [8]): 0 (Herbicidal ratio of 5% or lower (almost no effect)); Herbicidal effect grade, F: Digitaria ciliaris (Digitaria ciliaris [1]; [8]): 5 (Herbicidal ratio of 90% or more (almost completely withered)); Herbicidal effect grade, K: Lolium multiflorum Lam. (Lolium multiflorum Lam.; [8]): 5 (Herbicidal ratio of 90% or more (almost completely withered)); Herbicidal effect grade, H: Echinochloa crus-galli var. crus-galli [4, 8]: 5 (Herbicidal ratio of 90% or more (almost completely withered)); Effect on crop grade, e: wheat (wheat; [8]): 4 (Herbicidal ratio of 70% or higher and lower than 90%); b (directly sowed rice plant) effect on crop grade ([5]; Table 24): 5 (Herbicidal ratio of 90% or more (almost completely withered)); E herbicidal effect grade (Cyperus difformis; Table 24): 5 (Herbicidal ratio of 90% or more (almost completely withered)); Effect on crop grade, f: beet (beet [7]; [8]): 0 (Herbicidal ratio of 5% or lower (almost no effect))
2 | CCCCCCCCC(=O)OC1=C(c2c(C)cc(C)cc2C)C(=O)C(CC(C)=NOC)C1 (stereo not drawn) [1-033] | 1 (Herbicidal ratio of 5% or higher and lower than 20%) | 2 (Herbicidal ratio of 20% or higher and lower than 40%) | 5 (Herbicidal ratio of 90% or more (almost completely withered)) | 5 (Herbicidal ratio of 90% or more (almost completely withered)) | 5 (Herbicidal ratio of 90% or more (almost completely withered)) | 5 (Herbicidal ratio of 90% or more (almost completely withered)) | 5 (Herbicidal ratio of 90% or more (almost completely withered)) | 3 (Herbicidal ratio of 40% or higher and lower than 70%) | 5 (Herbicidal ratio of 90% or more (almost completely withered)) | 4 (Herbicidal ratio of 70% or higher and lower than 90%) | 5 (Herbicidal ratio of 90% or more (almost completely withered)) | 5 (Herbicidal ratio of 90% or more (almost completely withered)) | 5 (Herbicidal ratio of 90% or more (almost completely withered)) | 5 (Herbicidal ratio of 90% or more (almost completely withered)) | 5 (Herbicidal ratio of 90% or more (almost completely withered)) | 5 (Herbicidal ratio of 90% or more (almost completely withered)) | 5 (Herbicidal ratio of 90% or more (almost completely withered)) | 1 (Herbicidal ratio of 5% or higher and lower than 20%) | 
3 | CON=C(C)CC1CC(OC(=O)COCc2ccccc2)=C(c2c(C)cc(C)cc2C)C1=O (stereo not drawn) [1-094] |  |  | 5 (Herbicidal ratio of 90% or more (almost completely withered)) |  |  |  |  |  |  |  |  |  |  |  |  | 5 (Herbicidal ratio of 90% or more (almost completely withered)) | 4 (Herbicidal ratio of 70% or higher and lower than 90%) |  | b: directly sowed rice plant, effect grade on crop (rice; 320 g/ha): 5 (Herbicidal ratio of 90% or more (almost completely withered)); c: corn, effect grade on crop (corn; 320 g/ha): 4 (Herbicidal ratio of 70% or higher and lower than 90%); Q: Galium spurium, herbicidal effect (criteria 0-5) (Galium spurium): 0 (Herbicidal ratio of 5% or lower (almost no effect)); R: Veronica persica, herbicidal effect (criteria 0-5) (Veronica persica): 3 (Herbicidal ratio of 40% or higher and lower than 70%); M: Abutilon theophrasti, herbicidal effect grade (Abutilon theophrasti; 320 g/ha): 2 (Herbicidal ratio of 20% or higher and lower than 40%); F: Digitaria ciliaris, herbicidal effect grade (Digitaria ciliaris [1]; 320 g/ha): 5 (Herbicidal ratio of 90% or more (almost completely withered)); K: Lolium multiflorum Lam., herbicidal effect grade (Lolium multiflorum Lam.; 320 g/ha): 5 (Herbicidal ratio of 90% or more (almost completely withered)); F: Digitaria ciliaris, herbicidal effect (criteria 0-5) (Digitaria ciliaris [3]): 5 (Herbicidal ratio of 90% or more (almost completely withered)); G: Setaria viridis, herbicidal effect (criteria 0-5) (Setaria viridis): 5 (Herbicidal ratio of 90% or more (almost completely withered)); L: Apera spica-venti, herbicidal effect (criteria 0-5) (Apera spica-venti): 5 (Herbicidal ratio of 90% or more (almost completely withered)); H: Echinochloa crus-galli var. crus-galli, herbicidal effect grade ([4]; 320 g/ha): 5 (Herbicidal ratio of 90% or more (almost completely withered)); e: wheat, effect grade on crop (wheat; 320 g/ha): 3 (Herbicidal ratio of 40% or higher and lower than 70%); J: Alopecurus myosuroides, herbicidal effect (criteria 0-5) (Alopecurus myosuroides): 5 (Herbicidal ratio of 90% or more (almost completely withered)); f: beet, effect on crop (criteria 0-5) (beet [6]): 0 (Herbicidal ratio of 5% or lower (almost no effect)); f: beet, effect grade on crop (beet [7]; 320 g/ha): 0 (Herbicidal ratio of 5% or lower (almost no effect))
4 | CON=C(C)CC1CC(OC)=C(c2c(C)cc(C)cc2C)C1=O (stereo not drawn) [1-001, 2-mesityl-3-methoxy-5-{2-(methoxyimino)propyl}cyclopent-2-enone] | 0 (Herbicidal ratio of 5% or lower (almost no effect)) | 0 (Herbicidal ratio of 5% or lower (almost no effect)) | 0 (Herbicidal ratio of 5% or lower (almost no effect)) | 0 (Herbicidal ratio of 5% or lower (almost no effect)) | 0 (Herbicidal ratio of 5% or lower (almost no effect)) | 0 (Herbicidal ratio of 5% or lower (almost no effect)) | 0 (Herbicidal ratio of 5% or lower (almost no effect)) | 0 (Herbicidal ratio of 5% or lower (almost no effect)) | 0 (Herbicidal ratio of 5% or lower (almost no effect)) | 0 (Herbicidal ratio of 5% or lower (almost no effect)) | 0 (Herbicidal ratio of 5% or lower (almost no effect)) | 0 (Herbicidal ratio of 5% or lower (almost no effect)) | 0 (Herbicidal ratio of 5% or lower (almost no effect)) | 0 (Herbicidal ratio of 5% or lower (almost no effect)) | 0 (Herbicidal ratio of 5% or lower (almost no effect)) | 0 (Herbicidal ratio of 5% or lower (almost no effect)) | 0 (Herbicidal ratio of 5% or lower (almost no effect)) | 0 (Herbicidal ratio of 5% or lower (almost no effect)) | 
